The test system of this assay is Escherichia coli (E. coli - ATCC #10536). The experiment in a line: Automated assessment of efficacy in surfactant base (Example 4). In kind it is cell-based. As to conditions: 15 seconds exposure; for DeltaOD (450 nm) Mean: OD450 (16 hours) − OD450 (time zero), 2.85% sodium cocoyl glycinate + 1.85% sodium lauroamphoacetate; for DeltaOD (450 nm) Mean / DeltaOD (590 nm) Mean: pH 10; for DeltaOD (590 nm) Mean: OD590 (16 hours) − OD590 (time zero), same surfactant solution; for Nrep = No. of replicates showing growth (out of 4): surfactant solution pH 10. On the procedure:
In these examples, the efficacy of combinations of isopropylmethylphenols and terpineol were tested in a surfactant cleansing formulation comprising 2.85% sodium cocoyl glycinate and 1.85% sodium lauroamphoacetate. This corresponds to a 50% in use dilution with water of a typical neat formulation containing 5.7% cocoyl glycinate and 3.7% % sodium lauroamphoacetate during hand washing. Solutions were prepared such that the concentrations of the surfactant components and test actives were 1.1 times the final desired concentration in order to allow for dilution with the bacterial inoculum in the test. The solutions were manually adjusted to pH 10.0 by dropwise addition of sodium hydroxide solution, as measured with a pH meter at ambient temperature. Solutions of the isopropylmethylphenols and/or terpineols were prepared at a maximum of 24 hours before testing. The same terpineol was used as in Example 1.
The efficacy of the combinations of the present invention was determined against the same bacterium as in Example 1, Escherichia coli (E. coli—ATCC #10536), at a concentration of approximately 1×10^8 bacteria per mL.
Tests were conducted using standard microtiter plate assays using an automated liquid handling system. 270 μl of the surfactant test solution was pipetted into each well of the microtitre plate (Nunc F Gamma Irradiated 96F untreated microtitre plates of clear polystyrene) and 30 μl of the bacterial suspension was then added. After exactly 15 seconds of bacterial exposure, a 30 μl volume of bacterial cells was withdrawn and transferred to 270 μl of D/E quench solution. After 5 minutes in the D/E quench, the optical density (OD) was measured for each plate in turn at two specific wavelengths (450 nm and 590 nm). These provide a dual check of antimicrobial activity, as the OD450 reading is specific for the yellow colour of D/E quench when bacterial growth is observed, whereas OD590 is specific for the initial purple colour of the D/E quench which is retained if no bacterial growth is observed. After the time zero OD measurements, plates were then incubated at 37° C. overnight (16 hours) before repeating the OD measurements. Delta OD values were calculated by subtracting […] at time=16 hours.
Bacterial growth is observed as an increase in OD450 and a decrease in OD590. To identify antibacterially efficacious systems (those preventing appreciable bacterial growth after incubation), the following threshold changes in OD readings have been adopted: if (1). OD450 increases by less than 0.2 absorbance unit (AU) on incubation and (2). OD590 decreases by less than 0.35 AU on incubation. Conversely, where OD450 increases by more than 0.1 AU and OD590 decreases by more than 0.1 AU after incubation, corresponding to a colour shift from purple to yellow, the test system allows bacterial growth and is not deemed efficacious. Four replicate measurements in the same plate have been made for each test system. The number of replicate wells showing either bacterial growth or no growth is also readily assessed by eye by following the colour change. Thymol and terpineol were tested both alone and in combination for comparison purposes.
In each case, binary mixtures were assessed in the weight to weight ratio isopropylmethylphenol to alpha terpineol of 1:2.5.

As for `Cc1cc(O)ccc1C(C)C` [4:27, 4-isopropyl-3-methylphenol], the “DeltaOD (450 nm) Mean” value is reported as −0.48, the “DeltaOD (590 nm) Mean” value is 0.58 and the “Nrep = No. of replicates showing growth (out of 4)” value is reported as 4.
On to `CC1=CCC(O)(C(C)C)CC1` (stereo not drawn) [4:16, terpineol], for which the “DeltaOD (450 nm) Mean” value is reported as −0.57, the “DeltaOD (590 nm) Mean” value is recorded as 0.55 and the “Nrep = No. of replicates showing growth (out of 4)” value is listed as 4.
For `Cc1ccc(C(C)C)c(O)c1` [4:9, thymol] the same measures were −0.55, 0.65 and 4.
For `Cc1ccc(C(C)C)c(O)c1` [4:6, thymol] the same measures were −0.58, 0.54 and 4.
For `CC1=CCC(O)(C(C)C)CC1` (stereo not drawn) [4:10, terpineol] the same measures were −0.45, 0.64 and 4.
As to `Cc1cc(O)cc(C(C)C)c1` [4:20, 3-isopropyl-5-methylphenol], the “DeltaOD (450 nm) Mean” value was −0.56, the “DeltaOD (590 nm) Mean” value was determined as 0.57 and the “Nrep = No. of replicates showing growth (out of 4)” value worked out at 4.
On the same counts, the results for `Cc1ccc(C(C)C)c(O)c1` [4:3, thymol] are −0.54, 0.56 and 4.
For `CC1=CCC(O)(C(C)C)CC1` (stereo not drawn) [4:15, terpineol] the same measures were −0.56, 0.55 and 4.
As to `Cc1cc(O)cc(C(C)C)c1` [4:18, 3-isopropyl-5-methylphenol], the “DeltaOD (450 nm) Mean” value is recorded as −0.54, the “DeltaOD (590 nm) Mean” value came to 0.63 and the “Nrep = No. of replicates showing growth (out of 4)” value turned out to be 4.
On the same counts, the results for `CC1=CCC(O)(C(C)C)CC1` (stereo not drawn) [4:13, terpineol] are −0.51, 0.57 and 4.
On the same counts, the results for `CC1=CCC(O)(C(C)C)CC1` (stereo not drawn) [4:12, terpineol] are −0.48, 0.58 and 4.
For `CC1=CCC(O)(C(C)C)CC1` (stereo not drawn) [4:14, terpineol] the same measures were −0.54, 0.56 and 4.
`CC1=CCC(O)(C(C)C)CC1` (stereo not drawn) [4:17, terpineol]: the “DeltaOD (450 nm) Mean” value is on record as −0.53, the “DeltaOD (590 nm) Mean” value turned out to be 0.67 and the “Nrep = No. of replicates showing growth (out of 4)” value is 4.
For `Cc1cc(O)ccc1C(C)C` [4:26, 4-isopropyl-3-methylphenol] the same measures were −0.46, 0.67 and 4.
On the same counts, the results for `Cc1ccc(C(C)C)c(O)c1` [4:7, thymol] are −0.59, 0.54 and 4.
For `Cc1ccc(C(C)C)c(O)c1` [4:2, thymol] the same measures were −0.54, 0.64 and 4.
With `Cc1ccc(C(C)C)c(O)c1` [4:8, thymol], the “DeltaOD (450 nm) Mean” value is listed as −0.58, the “DeltaOD (590 nm) Mean” value is given as 0.55 and the “Nrep = No. of replicates showing growth (out of 4)” value came out at 4.
On the same counts, the results for `Cc1ccc(C(C)C)c(O)c1` [4:4, thymol] are −0.57, 0.55 and 4.
On the same counts, the results for `Cc1ccc(C(C)C)c(O)c1` [4:5, thymol] are −0.58, 0.55 and 4.
For `Cc1cc(O)cc(C(C)C)c1` [4:19, 3-isopropyl-5-methylphenol] the same measures were −0.53, 0.58 and 4.
As for `Cc1cc(O)cc(C(C)C)c1` [4:21, 3-isopropyl-5-methylphenol], the “DeltaOD (450 nm) Mean” value was −0.57, the “DeltaOD (590 nm) Mean” value was 0.56 and the “Nrep = No. of replicates showing growth (out of 4)” value worked out at 4.
On the same counts, the results for `CC1=CCC(O)(C(C)C)CC1` (stereo not drawn) [4:11, terpineol] are −0.47, 0.59 and 4.

These data come from US20140322076A1, “ANTIMICROBIAL COMPOSITION” (priority 2011, published 2014).
